# From PMC9024977, “In Vitro and In Silico Studies of Human Tyrosyl-DNA Phosphodiesterase 1 (Tdp1) Inhibition by Stereoisomeric Forms of Lipophilic Nucleosides: The Role of Carbohydrate Stereochemistry in Ligand-Enzyme Interactions” (Molecules, 2022)
# Key:
# Tdp1 [1] = molecular target: T1, Tdp1 (Homo sapiens, UniProt Q9NUW8); assay: Real-time detection of Tdp1 activity (oligonucleotide biosensor, FAM/BHQ1); assay type: biochemical; design: key to Eut/Dis: The stereoisomer with the greater inhibitory activity is termed the eutomer (Eut); that with the lower activity, the distomer (Dis); details: for IC50: 1.5 nM Tdp1, 50 nM biosensor, 26 °C, three independent experiments; for ER (eudismic ratio): IC50 (Eutomer)/IC50 (Distomer); for ER (eudismic ratio) / EI (eudismic index): per stereoisomer pair; for Eut/Dis: eutomer or distomer within the stereoisomer pair; for EI (eudismic index): −logER
# T1 sequence (Q9NUW8 whole entry): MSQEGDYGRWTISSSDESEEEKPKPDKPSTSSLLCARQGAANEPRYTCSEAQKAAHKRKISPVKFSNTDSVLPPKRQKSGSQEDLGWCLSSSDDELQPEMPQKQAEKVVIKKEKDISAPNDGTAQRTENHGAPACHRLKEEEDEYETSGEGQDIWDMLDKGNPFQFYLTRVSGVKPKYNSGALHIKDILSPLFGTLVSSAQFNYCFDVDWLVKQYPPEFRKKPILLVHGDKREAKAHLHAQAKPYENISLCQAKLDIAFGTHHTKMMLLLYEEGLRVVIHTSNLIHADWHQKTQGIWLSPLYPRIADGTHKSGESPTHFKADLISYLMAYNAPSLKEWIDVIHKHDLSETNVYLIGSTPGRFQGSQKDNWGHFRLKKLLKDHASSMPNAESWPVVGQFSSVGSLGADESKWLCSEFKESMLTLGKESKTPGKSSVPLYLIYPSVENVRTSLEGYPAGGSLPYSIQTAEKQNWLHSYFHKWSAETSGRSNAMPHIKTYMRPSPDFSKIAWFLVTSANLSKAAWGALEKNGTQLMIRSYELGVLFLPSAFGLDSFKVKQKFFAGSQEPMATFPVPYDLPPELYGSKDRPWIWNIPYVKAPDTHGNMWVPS
# Procedure: The measurement of Tdp1 inhibition was performed using a real-time oligonucleotide biosensor based on the capability of Tdp1 to remove fluorophore quenchers from the 3′-end of DNA [31]. The single-stranded Tdp1 substrate was a 16-mer oligonucleotide containing a 5′-FAM (6-carboxyfluorescein) fluorophore donor and a 3′-BHQ1 quencher (black hole quencher 1). When a quencher is removed by Tdp1, FAM fluorescence flares up and can be detected by a fluorimeter. In the presence of an inhibitor, fluorescence intensity decreases. The obtained Tdp1 activity versus inhibitor concentration curves were used to calculate IC50 values. We also studied other structurally related compounds, such as optically active benzoylated arabinofuranose and ribofuranose to ascertain the influence of a heterocyclic base on biological activity (Table 1).
# Real-time detection of Tdp1 activity was reported in our previous work. This approach involves measuring the fluorescence intensity during the reaction of quencher removal from a fluorophore-quencher coupled to a DNA-oligonucleotide catalyzed by Tdp1 in the presence of inhibitor (the control samples contained 1% DMSO). Reaction mixtures ([…]) contained Tdp1 buffer (50mM Tris-HCl, pH 8.0, 50mM NaCl, 7mM β-mercaptoethanol), 50 nM biosensor, testable inhibitor, and purified Tdp1 (1.5 nM). The biosensor was a single-stranded oligonucleotide (5′-[FAM] AAC GTC AGGGTC TTC C [BHQ]-3′) containing a fluorophore at the 5′-end (5,6-FAM) and black hole quencher 1 (BHQ) at the 3′-end that was synthesized in the Laboratory of nucleic acid chemistry at the Institute of Chemical Biology and Fundamental Medicine, Novosibirsk, Russia. The reactions were incubated at a constant temperature of 26 °C in a POLARstar OPTIMA fluorimeter (BMG LABTECH, GmbH, Soest, Germany) set to measure fluorescence every 55 s (Ex485/Em520 nm) during the linear phase (from 0 to 8 min). The values for half maximal inhibitory concentration (IC50) were determined using a six-point concentration response curve in three independent experiments and calculated using MARS Data Analysis 2.0 (BMG LABTECH, Soest, Germany).
# recombinant human Tdp1 = assay: Steady-state kinetic analysis of Tdp1 enzymatic reaction; assay type: biochemical; details: from dependence of Vmax and KM on inhibitor concentration
# Procedure: To confirm the interaction model obtained by molecular docking, the type of inhibition by compounds 3D, 3L, 7R, and 7S was determined by a steady-state kinetic assay. During the experiment, dependence curves of the enzymatic reaction rate (V) on substrate concentration (S) in the presence of different concentrations of the inhibitors were obtained (Figures S36–S39 in Supplementary Materials). The apparent Michaelis constant (KM) and the maximum reaction rate (Vmax) were calculated according to the Michaelis–Menten equation. Conclusions about the type of inhibition were made from the characteristics of the dependence of Vmax and KM on the concentration of the inhibitor.
# To determine the apparent maximum rate of enzymatic reaction (Vmax), Michaelis constant (KM), and possible inhibition mechanism, steady-state kinetic experiments were carried out at five fixed concentrations for the substrate with various inhibitor concentrations. The standard reaction mixtures (200 μL) contained 50 nM, 100 nM, 200 nM, 500 nM, or 1000 nM substrate, testable inhibitor, 1.5 nM recombinant human Tdp1, and reaction buffer components (50 mM Tris-HCl, pH 8.0, 50 mM NaCl, 7 mM β-mercaptoethanol). After the addition of the enzyme, the reaction mixtures were incubated at a constant temperature of 26 °C and measured in a POLARstar OPTIMA fluorimeter (BMG LABTECH, GmbH) set to measure fluorescence every 55 s (Ex485/Em520 nm) during the linear phase (0 to 8 min). The initial data (kinetic curves) were obtained in three independent experiments and statistically processed with OriginPro 8.6.0 software.
# Tdp1 [2] = molecular target: T1, Tdp1; assay: Fluorescence anisotropy assay; assay type: binding; details: FAM-labeled DNA with Tdp1, increasing inhibitor concentration
# From the text: To clarify the mechanism of action of this compound, the change in the fluorescence anisotropy during the Tdp1 catalytic reaction was studied. This method is based on the ability of fluorescent molecules to be excited by plane-polarized light when their dipole moment is parallel to the plane of polarization. If such a molecule is unable to rotate in space, then the emitted light will be polarized following excitation. Conversely, if the molecule can rotate, then the emitted light is “depolarized”. The minimum anisotropy value corresponds to FAM-labeled DNA (Figure S40, gray graph). When Tdp1 was added, the anisotropy increased due to the binding of the DNA by the enzyme, which prevents its free rotation (Figure S40, red graph).
# This means that the inhibitor can bind to the active site of Tdp1 instead of the DNA substrate, thereby reducing the activity of the enzyme by competitive inhibition. This is consistent with the data obtained in the kinetic studies. […] Thus, a competitive component is present when Tdp1 is inhibited by compound 7R; however, this process is more complicated and requires further study with other methods.
Structure (SMILES),IC50 (Tdp1 [1]) [µM],ER (eudismic ratio) (Tdp1 [1]),Eut/Dis (Tdp1 [1]),EI (eudismic index) (Tdp1 [1]),type of inhibition (recombinant human Tdp1),change in fluorescence anisotropy (Tdp1 [2])
"CO[C@H]1O[C@H](COC(=O)c2ccccc2)[C@@H](OC(=O)c2ccccc2)[C@@H]1OC(=O)c1ccccc1 [Compound 1D, 1-O-methyl-2,3,5-tri-O-benzoyl-α-D-arabinofuranose]",2.3 ± 0.6,0.343,Eut,0.465,,
"CO[C@@H]1O[C@@H](COC(=O)c2ccccc2)[C@H](OC(=O)c2ccccc2)[C@H]1OC(=O)c1ccccc1 [Compound 1L, 1-O-methyl-2,3,5-tri-O-benzoyl-α-L-arabinofuranose]",6.7 ± 1.9,0.343,Dis,0.465,,
"CC(=O)O[C@@H]1O[C@H](COC(=O)c2ccccc2)[C@@H](OC(=O)c2ccccc2)[C@H]1OC(=O)c1ccccc1 [Compound 2D, 1-O-Acetyl-2,3,5-tri-O-benzoyl-β-D-ribofuranose]",,0.808,Eut,0.09,,
CC(=O)O[C@H]1O[C@@H](COC(=O)c2ccccc2)[C@H](OC(=O)c2ccccc2)[C@@H]1OC(=O)c1ccccc1 [Compound 2L],5.2 ± 0.2,0.808,Dis,0.09,,
"O=C(OC[C@H]1O[C@@H](n2ccc(=O)[nH]c2=O)[C@H](OC(=O)c2ccccc2)[C@@H]1OC(=O)c1ccccc1)c1ccccc1 [Compound 3D, 2′,3′,5′-tri-O-benzoyl-D-uridine]",3.8 ± 0.4,0.745,Eut,0.128,uncompetitive,
"O=C(OC[C@@H]1O[C@H](n2ccc(=O)[nH]c2=O)[C@@H](OC(=O)c2ccccc2)[C@H]1OC(=O)c1ccccc1)c1ccccc1 [Compound 3L, 2′,3′,5′-tri-O-benzoyl-L-uridine]",5.1 ± 0.1,0.745,Dis,0.128,uncompetitive,
"Cc1cn([C@@H]2O[C@H](COC(=O)c3ccccc3)[C@@H](OC(=O)c3ccccc3)[C@H]2OC(=O)c2ccccc2)c(=O)[nH]c1=O [Compound 4D, 1-(2,3,5-Tri-O-benzoyl-β-D-ribofuranosyl)thymine]",,0.108,Eut,0.967,,
"Cc1cn([C@H]2O[C@@H](COC(=O)c3ccccc3)[C@H](OC(=O)c3ccccc3)[C@@H]2OC(=O)c2ccccc2)c(=O)[nH]c1=O [Compound 4L, 2′,3′,5′-tri-O-benzoyl-L-ribothymidine]",25 ± 1,0.108,Dis,0.967,,
"C[C@@H](OC(=O)c1ccccc1)[C@H]1O[C@@H](n2c(=O)cc[nH]c2=O)[C@H](OC(=O)c2ccccc2)[C@@H]1OC(=O)c1ccccc1 [Compound 5R, 3-[5(R)-C-methyl-2,3,5-O-tribenzoyl-β-D-ribofuranosyl]uracil]",3.1 ± 0.2,0.871,Dis,0.06,,
"C[C@H](OC(=O)c1ccccc1)[C@H]1O[C@@H](n2c(=O)cc[nH]c2=O)[C@H](OC(=O)c2ccccc2)[C@@H]1OC(=O)c1ccccc1 [Compound 5S, 3-[5(S)-C-methyl-2,3,5-tri-O-benzoyl-β-D-ribofuranosyl]uracil]",2.7 ± 0.2,0.871,Eut,0.06,,
"C[C@@H](OC(=O)c1ccccc1)[C@H]1O[C@@H](n2ccc(N)nc2=O)[C@H](OC(=O)c2ccccc2)[C@@H]1OC(=O)c1ccccc1 [Compound 6R, 1-[5(R)-C-methyl-2,3,5-tri-O-benzoyl-β-D-ribofuranosyl]cytosine]",5.8 ± 0.5,0.896,Dis,0.048,,
"C[C@H](OC(=O)c1ccccc1)[C@H]1O[C@@H](n2ccc(N)nc2=O)[C@H](OC(=O)c2ccccc2)[C@@H]1OC(=O)c1ccccc1 [Compound 6S, 1-[5(S)-C-methyl-2,3,5-tri-O-benzoyl-β-D-ribofuranosyl]cytosine]",5.2 ± 0.8,0.896,Eut,0.048,,
"C[C@@H](OC(=O)c1ccccc1)[C@H]1O[C@@H](n2cnc3c(NC(=O)c4ccccc4)ncnc32)[C@H](OC(=O)c2ccccc2)[C@@H]1OC(=O)c1ccccc1 [Compound 7R, 5′(R)-C-methyl-2′,3′,5′-tri-O-benzoyl-N^6-benzoyladenosine]",4.4 ± 0.8,0.956,Eut,0.0193,uncompetitive at low inhibitor concentrations and mixed at high,
"C[C@H](OC(=O)c1ccccc1)[C@H]1O[C@@H](n2cnc3c(NC(=O)c4ccccc4)ncnc32)[C@H](OC(=O)c2ccccc2)[C@@H]1OC(=O)c1ccccc1 [Compound 7S, 5′(S)-C-methyl-2′,3′,5′-tri-O-benzoyl-N^6-benzoyladenosine]",4.6 ± 0.9,0.956,Dis,0.0193,competitive,decreased with an increasing concentration of the inhibitor
O=c1ccn([C@@H]2O[C@H](CO)[C@@H](O)[C@H]2O)c(=O)[nH]1 [Compound 8D],> 50,,,,,
O=c1ccn([C@H]2O[C@@H](CO)[C@H](O)[C@@H]2O)c(=O)[nH]1 [Compound 8L],> 50,,,,,
